Results as given in patent publication US9464082B2, “Aryl and arylalkyl substituted pyrazolyl and pyrimidinyl tricyclic enones as antioxidant inflammation modulators” (AbbVie Inc., priority 2014, dated 2016).

Test system: IFNγ-Induced NO Production
Experiment: Nitric Oxide Suppression Assay (Suppression of IFNγ-Induced NO Production)
Format: cell-based
Conditions: RAW264.7; RAW 264.7 mouse macrophage cells; 2 hour pre-treatment with compound (3 μM to 0.3 nM, 10 point curve); 20 ng/mL interferon gamma, ~18 hour; Griess detection; n=2-3 in duplicates
Experimental: RAW 264.7, a mouse macrophage cell line, was obtained from American Type Culture Collection (Manassas Va.) and maintained in the log phase of growth in Dulbecco's Modified Eagle's Medium (DMEM), 10% heat inactivated fetal calf serum and 100 units/mL antibiotic-antimycotic (AA). Cells were cultured and maintained in a humidified incubator at 37° C. under 5% CO2 and 95% air. Cells were sub-cultured every 3 days by scraping and were not used beyond passage 20. All cell culture supplies were obtained from Life Technologies (Grand Island, N.Y.).
RAW 264.7 cells were plated 1 day in advance of experiment at a concentration of 80,000 cells/well onto CellBIND® 96 well plates (Corning, N.Y.) in a total volume of 100 μL. The next day, pre-treat cells with compounds (from 3 μM to 0.3 nM serially diluted in a 10 point curve) from a 10× stock by adding 10 μL per well in complete DMEM media containing 10% fetal calf serum. The plates were centrifuged for 3 minutes at 400×g at room temperature followed by 2 hour incubation at 37° C. The cells were then incubated overnight at 37° C. with 10 μL of the insult, interferon gamma (R&D Systems, Minneapolis, Minn.), from a 10× stock for a final concentration of 20 ng/mL. The plates were centrifuged for 3 minutes at 400×g at room temperature followed by ˜18 hour incubation at 37° C. The following day, transfer 50 μL cell culture supernatant from each well into a clear bottom 96 well plate and follow the instructions from Promega's Griess Detection Kit #G2930 (Madison, Wis.) which involves the addition of 50 μL of the provided sulfanilamide solution for a 5-10 minute incubation at room temperature. Next add 50 μL of the provided N-1-napthylethylenediamine dihydrochloride (NED) solution for a 5-10 minute incubation at room temperature and protected from light. If any air bubbles were introduced into the well, the plates need to be centrifuged for 5 minutes at 400×g at room temperature to avoid interference with absorbance readings. The plates were read for absorbance within 30 minutes with a filter between 520 nm and 550 nm.
For the ability of compounds to suppress the increase in nitric oxide release, the percent maximal intensity of nitric oxide detected in each well was normalized to that induced by the peak value for 20 ng/mL of interferon gamma alone and plotted against the compound concentration to calculate IC50 values and to control for plate-to-plate variability. Concentration-response data were analyzed using GraphPad Prism (San Diego, Calif.); the IC50 values were derived from a single curve fit to the mean data of n=2-3, in duplicates.
All compounds were dissolved in dimethyl sulfoxide at 10 mM stock solutions and tested at a concentration that the dimethyl sulfoxide levels never exceeded 1%.

**Q.** For `C[C@@H]1C(=O)C(C#N)=C[C@]2(c3ccccc3)c3nn(C)c(-c4ccnnc4)c3CC[C@@H]12` [Example 97, (5aS,6S,9aR)-2,6-dimethyl-7-oxo-9a-phenyl-3-(pyridazin-4-yl)-4,5,5a,6,7,9a-hexahydro-2H-benzo[g]indazole-8-carbonitrile], which IC50 is on record?
**A.** 15 nM

**Q.** For `C[C@@H]1C(=O)C(C#N)=C[C@]2(Cc3ccccc3)c3nn(C)c(-c4ccccc4)c3CC[C@@H]12` (racemic) [Example 164, rac-(5aS,6S,9aR)-9a-benzyl-2,6-dimethyl-7-oxo-3-phenyl-4,5,5a,6,7,9a-hexahydro-2H-benzo[g]indazole-8-carbonitrile], which IC50 is on record?
**A.** 65 nM

**Q.** With `C[C@@H]1C(=O)C(C#N)=C[C@]2(c3ccccc3)c3c(c(-c4ccccc4)nn3C)CC[C@@H]12` (racemic) [Example 3, rac-(5aS,6S,9aR)-1,6-dimethyl-7-oxo-3,9a-diphenyl-4,5,5a,6,7,9a-hexahydro-1H-benzo[g]indazole-8-carbonitrile] as the compound, how does the IC50 read?
**A.** 7.19 nM

**Q.** With `C[C@@H]1C(=O)C(C#N)=C[C@]2(c3ccccc3)c3nc(N4CCOCC4)ncc3CC[C@@H]12` [Example 19, (6aS,7S,10aR)-7-methyl-2-(morpholin-4-yl)-8-oxo-10a-phenyl-5,6,6a,7,8,10a-hexahydrobenzo[h]quinazoline-9-carbonitrile] as the compound, how does the IC50 read?
**A.** 36.2 nM

**Q.** For `C[C@@H]1C(=O)C(C#N)=C[C@]2(c3ccccc3)c3nn(C)c(-c4cccc(Br)c4)c3CC[C@@H]12` [Example 148, (5aS,6S,9aR)-3-(3-bromophenyl)-2,6-dimethyl-7-oxo-9a-phenyl-4,5,5a,6,7,9a-hexahydro-2H-benzo[g]indazole-8-carbonitrile], which IC50 is on record?
**A.** 31.5 nM

**Q.** How did the IC50 turn out when `COc1ccc([C@]23C=C(C#N)C(=O)[C@@H](C)[C@@H]2CCc2c[nH]nc23)cc1` [Example 58, (5aS,6S,9aR)-9a-(4-methoxyphenyl)-6-methyl-7-oxo-4,5,5a,6,7,9a-hexahydro-2H-benzo[g]indazole-8-carbonitrile] was run?
**A.** 33.4 nM

**Q.** With `COc1cccc([C@]23C=C(C#N)C(=O)[C@@H](C)[C@@H]2CCc2cnn(C)c23)c1` (racemic) [Example 5, rac-(5aS,6S,9aR)-9a-(3-methoxyphenyl)-1,6-dimethyl-7-oxo-4,5,5a,6,7,9a-hexahydro-1H-benzo[g]indazole-8-carbonitrile] as the compound, how does the IC50 read?
**A.** 41.3 nM

**Q.** With `C[C@@H]1C(=O)C(C#N)=C[C@]2(c3ccccc3)c3n[nH]c(-c4cnn(CC(=O)O)c4)c3CC[C@@H]12` [Example 141, {4-[(5aS,6S,9aR)-8-cyano-6-methyl-7-oxo-9a-phenyl-4,5,5a,6,7,9a-hexahydro-2H-benzo[g]indazol-3-yl]-1H-pyrazol-1-yl}acetic acid] as the compound, how does the IC50 read?
**A.** 4 nM

**Q.** `CCCNC(=O)c1cccc([C@]23C=C(C#N)C(=O)[C@@H](C)[C@@H]2CCc2cncnc23)c1` [Example 96, 3-[(6aS,7S,10aR)-9-cyano-7-methyl-8-oxo-6,6a,7,8-tetrahydrobenzo[h]quinazolin-10a(5H)-yl]-N-propylbenzamide] was tested. Which IC50 did it give?
**A.** 78.2 nM

**Q.** For `C[C@@H]1C(=O)C(C#N)=C[C@]2(c3ccccc3)c3nn(C(=O)CNC(=O)OC(C)(C)C)cc3CC[C@@H]12` [Example 39, tert-butyl {2-[(5aS,6S,9aR)-8-cyano-6-methyl-7-oxo-9a-phenyl-4,5,5a,6,7,9a-hexahydro-2H-benzo[g]indazol-2-yl]-2-oxoethyl}carbamate], which IC50 is on record?
**A.** 53.6 nM

**Q.** `C[C@@H]1C(=O)C(C#N)=C[C@]2(c3ccccc3)c3nc(-c4c(F)cccc4F)ncc3CC[C@@H]12` [Example 74, (6aS,7S,10aR)-2-(2,6-difluorophenyl)-7-methyl-8-oxo-10a-phenyl-5,6,6a,7,8,10a-hexahydrobenzo[h]quinazoline-9-carbonitrile] was tested. Which IC50 did it give?
**A.** 9.26 nM

**Q.** With `C[C@@H]1C(=O)C(C#N)=C[C@]2(c3ccccc3)c3nn(C(=O)CO)cc3CC[C@@H]12` [Example 42, (5aS,6S,9aR)-2-glycoloyl-6-methyl-7-oxo-9a-phenyl-4,5,5a,6,7,9a-hexahydro-2H-benzo[g]indazole-8-carbonitrile] as the compound, how does the IC50 read?
**A.** 34.2 nM

**Q.** Which IC50 does the source give for `C[C@@H]1C(=O)C(C#N)=C[C@]2(c3ccc(O)cc3)c3ncncc3CC[C@@H]12` [Example 121, (6aS,7S,10aR)-10a-(4-hydroxyphenyl)-7-methyl-8-oxo-5,6,6a,7,8,10a-hexahydrobenzo[h]quinazoline-9-carbonitrile] here?
**A.** 8.47 nM

**Q.** `CC(C)Oc1nc(-c2ccccc2F)nc2c1CC[C@H]1[C@H](C)C(=O)C(C#N)=C[C@]21c1ccccc1` [Example 31, (6aS,7S,10aR)-2-(2-fluorophenyl)-4-isopropoxy-7-methyl-8-oxo-10a-phenyl-5,6,6a,7,8,10a-hexahydrobenzo[h]quinazoline-9-carbonitrile] was tested. Which IC50 did it give?
**A.** 272 nM

**Q.** With `C[C@@H]1C(=O)C(C#N)=C[C@]2(c3ccccc3)c3nn(C)c(-c4cccc(-c5cccc(NS(C)(=O)=O)c5)c4)c3CC[C@@H]12` [Example 150, N-{3′-[(5aS,6S,9aR)-8-cyano-2,6-dimethyl-7-oxo-9a-phenyl-4,5,5a,6,7,9a-hexahydro-2H-benzo[g]indazol-3-yl]biphenyl-3-yl}methanesulfonamide] as the compound, how does the IC50 read?
**A.** 2.26 nM

**Q.** With `COC(=O)c1ccc(-c2cccc(-c3nc(C)nc4c3CC[C@H]3[C@H](C)C(=O)C(C#N)=C[C@]43c3ccccc3)c2)cc1` [Example 134, methyl 3′-[(6aS,7S,10aR)-9-cyano-2,7-dimethyl-8-oxo-10a-phenyl-5,6,6a,7,8,10a-hexahydrobenzo[h]quinazolin-4-yl]biphenyl-4-carboxylate] as the compound, how does the IC50 read?
**A.** 6.9 nM

**Q.** How did the IC50 turn out when `C[C@@H]1C(=O)C(C#N)=C[C@]2(c3ccccc3)c3n[nH]c(-c4cnn(CCO)c4)c3CC[C@@H]12` [Example 117, (5aS,6S,9aR)-3-[1-(2-hydroxyethyl)-1H-pyrazol-4-yl]-6-methyl-7-oxo-9a-phenyl-4,5,5a,6,7,9a-hexahydro-2H-benzo[g]indazole-8-carbonitrile] was run?
**A.** 17.4 nM

**Q.** How did the IC50 turn out when `C[C@@H]1C(=O)C(C#N)=C[C@]2(c3ccccc3)c3c(c(-c4cccnc4)nn3C)CC[C@@H]12` [Example 26, (5aS,6S,9aR)-1,6-dimethyl-7-oxo-9a-phenyl-3-(pyridin-3-yl)-4,5,5a,6,7,9a-hexahydro-1H-benzo[g]indazole-8-carbonitrile] was run?
**A.** 1.3 nM

**Q.** `C[C@@H]1C(=O)C(C#N)=C[C@]2(c3ccccc3)c3n[nH]c(-c4cccc(CCCO)c4)c3CC[C@@H]12` [Example 123, (5aS,6S,9aR)-3-[3-(3-hydroxypropyl)phenyl]-6-methyl-7-oxo-9a-phenyl-4,5,5a,6,7,9a-hexahydro-2H-benzo[g]indazole-8-carbonitrile] was tested. Which IC50 did it give?
**A.** 7.72 nM

**Q.** `C[C@@H]1C(=O)C(C#N)=C[C@]2(c3ccccc3)c3nn(C)c(-c4ccc(-c5cncnc5)cc4)c3CC[C@@H]12` [Example 144, (5aS,6S,9aR)-2,6-dimethyl-7-oxo-9a-phenyl-3-[4-(pyrimidin-5-yl)phenyl]-4,5,5a,6,7,9a-hexahydro-2H-benzo[g]indazole-8-carbonitrile] was tested. Which IC50 did it give?
**A.** 18.1 nM

**Q.** How did the IC50 turn out when `Cc1nc(-c2ccc(N3CCOCC3)c(Br)c2)c2c(n1)[C@@]1(c3ccccc3)C=C(C#N)C(=O)[C@@H](C)[C@@H]1CC2` [Example 146, (6aS,7S,10aR)-4-[3-bromo-4-(morpholin-4-yl)phenyl]-2,7-dimethyl-8-oxo-10a-phenyl-5,6,6a,7,8,10a-hexahydrobenzo[h]quinazoline-9-carbonitrile] was run?
**A.** 52.2 nM

**Q.** How did the IC50 turn out when `COc1nc(C)nc2c1CC[C@H]1[C@H](C)C(=O)C(C#N)=C[C@]21c1ccccc1` [Example 13, (6aS,7S,10aR)-4-methoxy-2,7-dimethyl-8-oxo-10a-phenyl-5,6,6a,7,8,10a-hexahydrobenzo[h]quinazoline-9-carbonitrile] was run?
**A.** 4.8 nM

**Q.** Which IC50 does the source give for `C[C@@H]1C(=O)C(C#N)=C[C@]2(c3ccccc3)C3=NN(C)[C@@H](c4ccccc4)[C@H]3CC[C@@H]12` [Example 105, (3R,3aR,5aS,6S,9aR)-2,6-dimethyl-7-oxo-3,9a-diphenyl-3,3a,4,5,5a,6,7,9a-octahydro-2H-benzo[g]indazole-8-carbonitrile] here?
**A.** 34.5 nM

**Q.** Which IC50 does the source give for `Cc1nc(-c2cnc(C)s2)c2c(n1)[C@@]1(c3ccccc3)C=C(C#N)C(=O)[C@@H](C)[C@@H]1CC2` [Example 18, (6aS,7S,10aR)-2,7-dimethyl-4-(2-methyl-1,3-thiazol-5-yl)-8-oxo-10a-phenyl-5,6,6a,7,8,10a-hexahydrobenzo[h]quinazoline-9-carbonitrile] here?
**A.** 5.17 nM

**Q.** For `CCN(CC)c1ncc2c(n1)[C@@]1(c3ccccc3)C=C(C#N)C(=O)[C@@H](C)[C@@H]1CC2` [Example 30, (6aS,7S,10aR)-2-(diethylamino)-7-methyl-8-oxo-10a-phenyl-5,6,6a,7,8,10a-hexahydrobenzo[h]quinazoline-9-carbonitrile], which IC50 is on record?
**A.** 56.8 nM
